Laboratory results taken from patent publication US20240343706A1, “PIPERIDINE-2,6-DIONE DERIVATIVES WHICH BIND TO CEREBLON, AND METHODS OF USE THEREOF” (Captor Therapeutics S.A., priority 2019, published 2024).

Assays:
[1] = molecular target: CRBN-DDB1 protein complex (Homo sapiens, UniProt Q96SW2); assay: Fluorescence polarization (FP) assay, displacement of Cy5-labelled thalidomide; conditions: 25 nM CRBN-DDB1, 5 nM Cy5-labelled thalidomide, read-out: CRBN binding Ki
Method: CRBN-DDB1 protein complex was mixed with Cy5-labelled thalidomide and a compound to be tested (the “test compound”). […] The test solution was added to a 384-well assay plate.
The plate was spun-down (1 min, 1000 rpm, 22° C.) and then shaken using a VibroTurbulator for 10 min at room temperature (20-25° C.), with the frequency set to level 3. The assay plate with protein and the tracer was incubated for 60 min at room temperature (20-25° C.) prior to read-out with a plate reader.
The FP experiment was carried out with various concentrations of the test compounds in order to measure Ki values.

[2] = tested on: SALL4; assay: SALL4 degradation assay, Kelly cell line (western blot densitometry); format: cell-based; conditions: Kelly cells; for % of protein reduction based on densitometry values, SALL4 (24 H): summary Table 10, 20 μM (some compounds 10 and 20 μM); for % of SALL4 protein reduction, based on densitometry values: 24 h
Source text: (§1) After primary and secondary Ab staining, the membranes were washed and signals developed. The densitometry analysis was implemented to obtain the numeric values used later in the protein level evaluation process.

[3] = tested on: CK1α; assay: CK1α degradation assay, Kelly cell line (western blot densitometry); format: cell-based; conditions: Kelly cells; for % of protein reduction based on densitometry values, CK1α (24 H): summary Table 10, 20 μM (some compounds 10 and 20 μM); for % of CK1α protein reduction, based on densitometry values: 24 h
Source text: as §1

[4] = tested on: IKZF1; assay: IKZF1 degradation assay, H929 cell line (western blot densitometry); format: cell-based; conditions: H929 cells; for % of protein reduction based on densitometry values, IKZF 1 (24 H): summary Table 10, 20 μM (some compounds 10 and 20 μM); for % of IKZF1 α protein reduction based on densitometry values: 24 h
Source text: as §1

[5] = tested on: IKZF3; assay: IKZF3 degradation assay, H929 cell line (western blot densitometry); format: cell-based; conditions: H929 cells; for % of IKZF3 protein reduction based on densitometry values, IKZF3 Band I / % of IKZF3 protein reduction based on densitometry values, IKZF3 Band II: 24 h; for % of protein reduction based on densitometry values, IKZF3 (24 H): summary Table 10, 10 and 20 μM

CRBN-DDB1 protein complex, sequence (Q96SW2 whole entry): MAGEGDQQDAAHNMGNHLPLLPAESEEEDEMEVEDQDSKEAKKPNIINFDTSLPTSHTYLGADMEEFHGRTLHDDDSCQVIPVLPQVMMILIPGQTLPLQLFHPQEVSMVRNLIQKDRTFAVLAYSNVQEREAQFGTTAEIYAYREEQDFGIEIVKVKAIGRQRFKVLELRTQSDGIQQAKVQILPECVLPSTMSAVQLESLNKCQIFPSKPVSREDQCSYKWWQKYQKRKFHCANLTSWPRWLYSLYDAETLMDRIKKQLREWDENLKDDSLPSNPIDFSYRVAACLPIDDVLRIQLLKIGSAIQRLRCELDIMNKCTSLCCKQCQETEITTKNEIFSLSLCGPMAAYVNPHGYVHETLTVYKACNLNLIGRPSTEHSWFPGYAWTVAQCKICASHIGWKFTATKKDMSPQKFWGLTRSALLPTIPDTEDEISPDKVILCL
CRBN-DDB1 protein complex, sequence (Q16531 whole entry partner): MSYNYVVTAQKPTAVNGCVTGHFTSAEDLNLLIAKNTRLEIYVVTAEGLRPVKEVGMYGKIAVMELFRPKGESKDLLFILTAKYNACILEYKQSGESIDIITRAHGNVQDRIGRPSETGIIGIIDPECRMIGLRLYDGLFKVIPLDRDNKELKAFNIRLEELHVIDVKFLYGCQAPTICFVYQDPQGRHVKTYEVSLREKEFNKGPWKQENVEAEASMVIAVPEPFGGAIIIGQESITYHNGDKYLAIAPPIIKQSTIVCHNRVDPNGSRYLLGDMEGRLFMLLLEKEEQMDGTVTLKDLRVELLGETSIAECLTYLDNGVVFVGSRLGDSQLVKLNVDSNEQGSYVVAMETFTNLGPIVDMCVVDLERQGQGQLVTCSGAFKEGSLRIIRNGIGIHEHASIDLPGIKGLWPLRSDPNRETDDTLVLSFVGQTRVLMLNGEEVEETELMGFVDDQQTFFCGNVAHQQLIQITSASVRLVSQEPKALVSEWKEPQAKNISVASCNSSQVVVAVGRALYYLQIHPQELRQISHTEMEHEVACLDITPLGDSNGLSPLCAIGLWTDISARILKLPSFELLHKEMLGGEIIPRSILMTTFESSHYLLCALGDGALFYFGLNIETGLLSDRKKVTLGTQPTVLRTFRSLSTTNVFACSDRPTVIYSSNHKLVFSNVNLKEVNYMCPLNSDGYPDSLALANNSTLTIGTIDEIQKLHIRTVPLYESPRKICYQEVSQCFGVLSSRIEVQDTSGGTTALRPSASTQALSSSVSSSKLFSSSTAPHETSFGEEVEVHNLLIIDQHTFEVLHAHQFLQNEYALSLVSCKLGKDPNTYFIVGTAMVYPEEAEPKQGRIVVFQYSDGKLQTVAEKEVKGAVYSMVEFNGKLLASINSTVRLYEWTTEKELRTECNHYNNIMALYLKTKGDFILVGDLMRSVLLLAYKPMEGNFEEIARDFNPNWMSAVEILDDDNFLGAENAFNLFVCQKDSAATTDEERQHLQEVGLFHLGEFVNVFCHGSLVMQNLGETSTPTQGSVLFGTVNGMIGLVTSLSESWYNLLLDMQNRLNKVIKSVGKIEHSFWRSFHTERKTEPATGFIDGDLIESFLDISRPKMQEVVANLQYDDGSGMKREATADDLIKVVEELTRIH

SMILES	Ki [1]	% of protein reduction based on densitometry values, SALL4 (24 H) [2]	% of protein reduction based on densitometry values, CK1α (24 H) [3]	% of protein reduction based on densitometry values, IKZF 1 (24 H) [4]	% of IKZF3 protein reduction based on densitometry values, IKZF3 Band I ([5]; 10 μM)	% of IKZF3 protein reduction based on densitometry values, IKZF3 Band II ([5]; 10 μM)	% of IKZF3 protein reduction based on densitometry values, IKZF3 Band I ([5]; 20 μM)	% of IKZF3 protein reduction based on densitometry values, IKZF3 Band II ([5]; 20 μM)	% of protein reduction based on densitometry values, IKZF3 (24 H) [5]	% of SALL4 protein reduction, based on densitometry values ([2]; 10 μM)	% of SALL4 protein reduction, based on densitometry values ([2]; 20 μM)	% of CK1α protein reduction, based on densitometry values ([3]; 10 μM)	% of CK1α protein reduction, based on densitometry values ([3]; 20 μM)	% of IKZF1 α protein reduction based on densitometry values ([4]; 10 μM)	% of IKZF1 α protein reduction based on densitometry values ([4]; 20 μM)
O=C1CCC(NC(=O)c2cccc3c2NC(=O)C3)C(=O)N1 (centres unmarked) [Compound 1, N-(2,6-dioxopiperidin-3-yl)-2-oxoindoline-7-carboxamide]	10 to 50 µM	≤25% (≤25% for 0-25% of SALL4 protein reduction)	≤25% (≤25% for 0-25% of CK1a protein reduction)	≤25% (≤25% for 0-25% of IKZF1 protein reduction)	–	–	–	–	–	–	–	–	–	–	–
Cc1nc2c(C(=O)NC3CCC(=O)NC3=O)ccnc2[nH]1 (centres unmarked) [Compound 36, N-(2,6-dioxopiperidin-3-yl)-2-methyl-3H-imidazo[4,5-b]pyridine-7-carboxamide]	1 to 10 µM	≤25% (≤25% for 0-25% of SALL4 protein reduction)	≤25% (≤25% for 0-25% of CK1a protein reduction)	≤25% (≤25% for 0-25% of IKZF1 protein reduction)	–	–	–	–	–	–	–	–	–	–	–
Cn1cnc2c(C(=O)NC3CCC(=O)NC3=O)cccc21 (centres unmarked) [Compound 4, N-(2,6-dioxopiperidin-3-yl)-1-methyl-1H-benzo[d]imidazole-4-carboxamide]	1 to 10 µM	≤25% (≤25% for 0-25% of SALL4 protein reduction)	≤25% (≤25% for 0-25% of CK1a protein reduction)	≤25% (≤25% for 0-25% of IKZF1 protein reduction)	–	–	–	–	–	–	–	–	–	–	–
Cc1nc2c(C(=O)NC3CCC(=O)NC3=O)cncc2[nH]1 (centres unmarked) [Compound 35, N-(2,6-dioxopiperidin-3-yl)-2-methyl-3H-imidazo[4,5-c]pyridine-7-carboxamide]	1 to 10 µM	≤25% (≤25% for 0-25% of SALL4 protein reduction)	≤25% (≤25% for 0-25% of CK1a protein reduction)	≤25% (≤25% for 0-25% of IKZF1 protein reduction)	≤25% (≤25% for 0-25% of IKZF3 protein reduction)	≤25% (≤25% for 0-25% of IKZF3 protein reduction)	≤25% (≤25% for 0-25% of IKZF3 protein reduction)	≤25% (≤25% for 0-25% of IKZF3 protein reduction)	≤25% (≤25% for 0-25% of IKZF3 protein reduction)	≤25% (≤25% for 0-25% of SALL4 protein reduction)	≤25% (≤25% for 0-25% of SALL4 protein reduction)	≤25% (≤25% for 0-25% of CK1a protein reduction)	≤25% (≤25% for 0-25% of CK1a protein reduction)	≤25% (≤25% for 0-25% of IKZF1 protein reduction)	≤25% (≤25% for 0-25% of IKZF1 protein reduction)
O=C1CCC(NC(=O)c2cccc3[nH]c(C(F)F)nc23)C(=O)N1 (centres unmarked) [Compound 23, 2-(difluoromethyl)-N-(2,6-dioxopiperidin-3-yl)-1H-benzo[d]imidazole-7-carboxamide]	1 to 10 µM	≤25% (≤25% for 0-25% of SALL4 protein reduction)	≤25% (≤25% for 0-25% of CK1a protein reduction)	≤25% (≤25% for 0-25% of IKZF1 protein reduction)	–	–	–	–	–	–	–	–	–	–	–
O=C1CCC(NC(=O)c2ccnc3cc[nH]c23)C(=O)N1 (centres unmarked) [Compound 37, N-(2,6-dioxopiperidin-3-yl)-1H-pyrrolo[3,2-b]pyridine-7-carboxamide]	10 to 50 µM	≤25% (≤25% for 0-25% of SALL4 protein reduction)	≤25% (≤25% for 0-25% of CK1a protein reduction)	≤25% (≤25% for 0-25% of IKZF1 protein reduction)	–	–	–	–	–	–	–	–	–	–	–
Nc1cccc2c1C(=O)N(C1CCC(=O)NC1=O)C2=O (centres unmarked) [Pomalidomide, reference compound]	–	≥75% (≥75% for 75-100% of SALL4 protein reduction)	>25% (>25% for 26-74% of CK1a protein reduction)	≥75% (≥75% for 75-100% of IKZF1 protein reduction)	≥75% (≥75% for 75-100% of IKZF3 protein reduction)	≥75% (≥75% for 75-100% of IKZF3 protein reduction)	≥75% (≥75% for 75-100% of IKZF3 protein reduction)	≥75% (≥75% for 75-100% of IKZF3 protein reduction)	≥75% (≥75% for 75-100% of IKZF3 protein reduction)	≥75% (≥75% for 75-100% of SALL4 protein reduction)	≥75% (≥75% for 75-100% of SALL4 protein reduction)	>25% (>25% for 26-74% of CK1a protein reduction)	>25% (>25% for 26-74% of CK1a protein reduction)	≥75% (≥75% for 75-100% of IKZF1 protein reduction)	≥75% (≥75% for 75-100% of IKZF1 protein reduction)
Cn1cnc2cccc(C(=O)NC3CCC(=O)NC3=O)c21 (centres unmarked) [Compound 5, N-(2,6-dioxopiperidin-3-yl)-1-methyl-1H-benzo[d]imidazole-7-carboxamide]	–	≤25% (≤25% for 0-25% of SALL4 protein reduction)	≤25% (≤25% for 0-25% of CK1a protein reduction)	≤25% (≤25% for 0-25% of IKZF1 protein reduction)	–	–	–	–	–	–	–	–	–	–	–
O=C1CCC(NC(=O)c2c(F)ccc3[nH]cnc23)C(=O)N1 (centres unmarked) [Compound 7, N-(2,6-dioxopiperidin-3-yl)-5-fluoro-1H-benzo[d]imidazole-4-carboxamide]	1 to 10 µM	≤25% (≤25% for 0-25% of SALL4 protein reduction)	≤25% (≤25% for 0-25% of CK1a protein reduction)	≤25% (≤25% for 0-25% of IKZF1 protein reduction)	–	–	–	–	–	–	–	–	–	–	–
O=C1CCC(NC(=O)c2cccc3[nH]c(C(F)(F)F)nc23)C(=O)N1 (centres unmarked) [Compound 25, N-(2,6-dioxopiperidin-3-yl)-2-(trifluoromethyl)-1H-benzo[d]imidazole-7-carboxamide]	< 1 µM	≤25% (≤25% for 0-25% of SALL4 protein reduction)	≤25% (≤25% for 0-25% of CK1a protein reduction)	≤25% (≤25% for 0-25% of IKZF1 protein reduction)	–	–	–	–	–	–	–	–	–	–	–
CC(C)Cc1nc2c(C(=O)NC3CCC(=O)NC3=O)cccc2[nH]1 (centres unmarked) [Compound 24, N-(2,6-dioxopiperidin-3-yl)-2-isobutyl-1H-benzo[d]imidazole-7-carboxamide]	1 to 10 µM	≤25% (≤25% for 0-25% of SALL4 protein reduction)	≤25% (≤25% for 0-25% of CK1a protein reduction)	≤25% (≤25% for 0-25% of IKZF1 protein reduction)	–	–	–	–	–	–	–	–	–	–	–
O=C1CCC(NC(=O)c2cc(F)cc3[nH]cnc23)C(=O)N1 (centres unmarked) [Compound 8, N-(2,6-dioxopiperidin-3-yl)-6-fluoro-1H-benzo[d]imidazole-4-carboxamide]	1 to 10 µM	≤25% (≤25% for 0-25% of SALL4 protein reduction)	≤25% (≤25% for 0-25% of CK1a protein reduction)	≤25% (≤25% for 0-25% of IKZF1 protein reduction)	–	–	–	–	–	–	–	–	–	–	–
